According to US20170107203A1, “HETEROCYCLIC INHIBITORS OF THE SODIUM CHANNEL” (EPIRUS BIOPHARMACEUTICALS, INC., priority 2014, published 2017):

Target: T1, human Nav1.7 (Homo sapiens, UniProt Q15858)
T1 construct: expressed in transfected cells
Test: Assessment of Nav1.7 activity on PatchXpress (voltage dependence / slow inactivation parameters)
Format: cell-based
Details: compound at 10 μM, relative to 0.2% DMSO vehicle control; for hNav1.7: Reduction in current at 20 mV (normalized data) Delta Ratio: before/after 30 sec conditioning pulse at 20 mV; for hNav1.7: Shift in voltage dependence of inactivation (mV) Delta Vhalf: PatchXpress
Protocol: The generation of a HEK 293F cell line stably expressing human Nav1.7/Navp1 was achieved by co-transfecting human SCN9A and human SCN1B cDNAs, subcloned into plasmid vectors, utilizing standard transfection techniques. Clones were selected using appropriate selection agents (0.3 mg/mL Zeocin and 0.8 mg/mL Geneticin) and maintained in Dulbecco's Modified Eagle medium, 10% fetal bovine serum, 1% non-essential amino acids to ˜80% confluence at 37° C. in a humidified incubator with 95% atmosphere and 5% CO2.
On the day of each experiment, cells that were grown to 80% confluence in a T75 flask were harvested for use on PatchXpress (Molecular Devices, CA, USA). Following a recovery period at 37° C. in a humidified incubator with 95% atmosphere and 5% CO2 in Dulbecco's Modified Eagle Medium, the media was replaced with an external recording solution containing (in mM): 90 TEACI, 50 NaCl, 1.8 CaCl2, 1 MgCl2, 10 HEPES, 10 glucose, adjusted to pH 7.4 with TEAOH and 300 mOsm with sucrose. The internal recording solution contained (in mM): 129 CsF, 2 MgCl2, 11 EGTA, 10 HEPES, 6 NaCl, 3 Na2ATP adjusted to pH 7.2 with CsOH and 280 mOsm with sucrose. The automated liquid handling facility of PatchXpress dispensed cells and added compound. Modulation of Nav1.7 channels by compounds was assessed by promoting the channels into the inactivated state using a conditioning voltage pulse of variable amplitude, followed by a brief hyperpolarizing pulse with a subsequent depolarized voltage step to measure the current amplitude in the presence and absence of compound. Compounds were assayed at 10 μM. Based upon this Patch express protocol, four electrophysiological parameters were measured relative to a 0.2% DMSO vehicle control (Table 2).

T1 sequence (Q15858 whole entry): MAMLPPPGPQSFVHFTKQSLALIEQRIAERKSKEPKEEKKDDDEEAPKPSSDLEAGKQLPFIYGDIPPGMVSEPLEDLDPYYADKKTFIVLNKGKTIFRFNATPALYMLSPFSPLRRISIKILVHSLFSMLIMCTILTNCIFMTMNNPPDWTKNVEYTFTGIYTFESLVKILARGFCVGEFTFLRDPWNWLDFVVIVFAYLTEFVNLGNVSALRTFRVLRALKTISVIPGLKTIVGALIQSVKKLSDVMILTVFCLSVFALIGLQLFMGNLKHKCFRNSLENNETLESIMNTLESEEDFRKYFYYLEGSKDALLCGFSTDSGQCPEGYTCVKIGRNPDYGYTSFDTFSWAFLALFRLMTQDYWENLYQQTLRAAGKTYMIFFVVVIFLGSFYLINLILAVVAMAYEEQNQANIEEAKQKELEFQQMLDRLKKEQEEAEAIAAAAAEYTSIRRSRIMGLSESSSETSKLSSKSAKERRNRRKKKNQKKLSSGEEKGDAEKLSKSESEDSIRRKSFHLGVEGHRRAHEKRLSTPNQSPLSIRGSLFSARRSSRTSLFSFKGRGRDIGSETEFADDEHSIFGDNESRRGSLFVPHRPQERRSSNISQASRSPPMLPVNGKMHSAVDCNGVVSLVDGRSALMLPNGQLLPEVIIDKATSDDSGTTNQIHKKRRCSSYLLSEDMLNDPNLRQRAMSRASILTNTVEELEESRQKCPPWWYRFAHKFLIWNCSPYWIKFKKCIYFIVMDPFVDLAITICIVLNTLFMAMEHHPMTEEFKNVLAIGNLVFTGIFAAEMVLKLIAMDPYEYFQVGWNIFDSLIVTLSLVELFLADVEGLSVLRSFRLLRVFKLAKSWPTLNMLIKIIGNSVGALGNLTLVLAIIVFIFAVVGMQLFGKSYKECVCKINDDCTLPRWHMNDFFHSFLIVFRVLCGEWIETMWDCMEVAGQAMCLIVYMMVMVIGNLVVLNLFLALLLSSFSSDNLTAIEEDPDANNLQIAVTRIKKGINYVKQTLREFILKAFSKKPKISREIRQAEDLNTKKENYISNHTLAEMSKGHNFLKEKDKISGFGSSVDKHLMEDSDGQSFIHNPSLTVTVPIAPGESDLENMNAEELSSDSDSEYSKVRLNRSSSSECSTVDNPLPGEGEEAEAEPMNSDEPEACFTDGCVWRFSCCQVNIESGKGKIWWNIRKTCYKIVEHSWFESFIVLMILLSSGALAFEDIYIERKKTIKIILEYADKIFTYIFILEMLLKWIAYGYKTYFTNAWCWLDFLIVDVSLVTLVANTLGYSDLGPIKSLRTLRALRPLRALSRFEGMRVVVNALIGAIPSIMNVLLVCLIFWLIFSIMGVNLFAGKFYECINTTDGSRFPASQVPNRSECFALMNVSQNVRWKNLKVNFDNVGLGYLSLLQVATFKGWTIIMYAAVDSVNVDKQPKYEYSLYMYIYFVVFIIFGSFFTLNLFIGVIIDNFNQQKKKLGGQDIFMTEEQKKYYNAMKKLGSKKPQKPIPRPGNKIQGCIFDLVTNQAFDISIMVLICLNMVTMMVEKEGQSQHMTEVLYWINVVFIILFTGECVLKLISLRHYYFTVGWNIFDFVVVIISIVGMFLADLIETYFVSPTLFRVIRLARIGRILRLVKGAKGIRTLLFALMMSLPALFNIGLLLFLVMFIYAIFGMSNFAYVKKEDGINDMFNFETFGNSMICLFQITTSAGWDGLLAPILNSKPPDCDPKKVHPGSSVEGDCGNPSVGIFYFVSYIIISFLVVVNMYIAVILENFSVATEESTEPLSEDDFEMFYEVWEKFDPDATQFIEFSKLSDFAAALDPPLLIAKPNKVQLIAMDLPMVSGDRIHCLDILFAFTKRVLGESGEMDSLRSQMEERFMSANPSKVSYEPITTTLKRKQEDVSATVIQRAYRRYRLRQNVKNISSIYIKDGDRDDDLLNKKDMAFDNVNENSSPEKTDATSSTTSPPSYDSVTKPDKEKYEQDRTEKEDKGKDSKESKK
T1 sequence (Q07699 19-218 partner): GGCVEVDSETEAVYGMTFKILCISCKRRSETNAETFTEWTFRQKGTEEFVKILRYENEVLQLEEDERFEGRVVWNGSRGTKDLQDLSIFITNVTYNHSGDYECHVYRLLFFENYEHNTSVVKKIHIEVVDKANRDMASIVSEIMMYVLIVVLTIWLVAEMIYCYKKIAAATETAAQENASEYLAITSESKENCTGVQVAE

SMILES	hNav1.7: Reduction in current at 20 mV (normalized data) Delta Ratio	hNav1.7: Voltage dependence of activation (mV) VDEP [mV]	hNav1.7: Voltage dependence of fast inactivation (mV) VDEP [mV]	hNav1.7: Shift in voltage dependence of inactivation (mV) Delta Vhalf [mV]
Cc1cccc(C)c1OCC(C)NC(=O)[C@H](N)CC(C)C (stereo partly drawn) [Compound 2, (2R)-2-amino-N-(1-(2,6-dimethylphenoxy)propan-2-yl)-4-methylpentanamide]	−0.29	−10.00	−8.20	−32.20
Cc1cccc(C)c1OCC(C)NC(=O)[C@@H](N)CC(C)C (stereo partly drawn) [Compound 3, (2S)-2-amino-N-(1-(2,6-dimethylphenoxy)propan-2-yl)-4-methylpentanamide]	−0.28	−8.10	−7.40	−28.00
CC(C)CC(N)C(=O)N[C@H](C)COc1cc(C(F)(F)F)cc(C(F)(F)F)c1 (stereo partly drawn) [Compound 5, 2-amino-N-((R)-1-(3,5-bis(trifluoromethyl)phenoxy)propan-2-yl)-4-methylpentanamide]	−0.26	−4.60	−6.30	−25.20
N[C@H]1CCCC[C@H]1C(=O)NCCOc1cc(C(F)(F)F)cc(C(F)(F)F)c1 [Compound 8, (1R,2S)-2-amino-N-(2-(3,5-bis(trifluoromethyl)phenoxy)ethyl) cyclohexane-1-carboxamide]	−0.23	−7.80	−6.80	−16.40
O=C(NCCOc1cc(C(F)(F)F)cc(C(F)(F)F)c1)[C@H]1CCCN1 [Compound 11, (R)-N-(2-(3,5-bis(trifluoromethyl)phenoxy)ethyl) pyrrolidine-2-carboxamide]	−0.20	−5.00	−3.90	−19.70
Cc1cccc(C)c1OCC(C)NC(=O)[C@H](N)C(C)C (stereo partly drawn) [Compound 12, (2R)-2-amino-N-(1-(2,6-dimethylphenoxy)propan-2-yl)-3-methylbutanamide]	−0.19	−7.30	−4.30	−25.70
Cc1cccc(C)c1OCC(C)NC(=O)[C@@H]1CCCN1 (stereo partly drawn) [Compound 15, (2S)-N-(1-(2,6-dimethylphenoxy)propan-2-yl)pyrrolidine-2-carboxamide]	−0.16	−6.00	−4.90	−20.60
Cc1cccc(C)c1OCC(C)NC(=O)CN (centres unmarked) [Compound 17, 2-amino-N-(1-(2,6-dimethylphenoxy)propan-2-yl)acetamide]	−0.10	−5.80	−5.90	−12.40
CC(C)C[C@H](N)CC(=O)NCCOc1cc(F)cc(C(F)(F)F)c1 [Compound 18, (S)-3-amino-N-(2-(3-fluoro-5-(trifluoromethyl)phenoxy)ethyl)-5-methylhexanamide]	−0.09	−2.60	−3.90	−11.90
CC[C@@H](C)[C@@H](N)C(=O)NCCOc1cc(F)cc(C(F)(F)F)c1 [Compound 19, (2R,3R)-2-amino-N-(2-(3-fluoro-5-(trifluoromethyl)phenoxy)ethyl)-3-methylpentanamide]	−0.08	−8.00	−3.50	−10.00
O=C(NCCOc1cc(F)cc(C(F)(F)F)c1)[C@H]1CCCN1 [Compound 20, (R)-N-(2-(3-fluoro-5-(trifluoromethyl)phenoxy)ethyl) pyrrolidine-2-carboxamide]	−0.01	−6.80	−4.40	−7.20

Continued, values first:

hNav1.7: Reduction in current at 20 mV (normalized data) Delta Ratio	hNav1.7: Voltage dependence of activation (mV) VDEP [mV]	hNav1.7: Voltage dependence of fast inactivation (mV) VDEP [mV]	hNav1.7: Shift in voltage dependence of inactivation (mV) Delta Vhalf [mV]	SMILES
−0.27	−5.80	−11.50	−31.10	CC(C)CC(N)C(=O)N[C@H](COc1cc(C(F)(F)F)cc(C(F)(F)F)c1)c1ccccc1 (stereo partly drawn) [Compound 4, 2-amino-N-((S)-2-(3,5-bis(trifluoromethyl)phenoxy)-1-phenylethyl)-4-methylpentanamide]
−0.24	−8.10	−6.60	−21.40	CC[C@H](C)[C@H](N)C(=O)NCCOc1cc(C(F)(F)F)cc(C(F)(F)F)c1 [Compound 7, (2S,3S)-2-amino-N-(2-(3,5-bis(trifluoromethyl)phenoxy)ethyl)-3-methylpentanamide]
−0.21	−8.10	−7.90	−18.30	N[C@H](C(=O)NCCOc1cc(C(F)(F)F)cc(C(F)(F)F)c1)c1ccccc1 [Compound 9, (S)-2-amino-N-(2-(3,5-bis(trifluoromethyl)phenoxy)ethyl)-2-phenylacetamide]
−0.17	−5.90	−4.00	−23.80	CN[C@H](CC(C)C)C(=O)NCCOc1cc(C(F)(F)F)cc(C(F)(F)F)c1 [Compound 13, (R)-N-(2-(3,5-bis(trifluoromethyl)phenoxy)ethyl)-4-methyl-2-(methylamino)pentanamide]
−0.17	−4.00	−1.10	−25.30	O=C(NCCOc1cc(C(F)(F)F)cc(C(F)(F)F)c1)C1CCCN1 (centres unmarked) [Compound 14, N-(2-(3,5-bis(trifluoromethyl)phenoxy)ethyl) pyrrolidine-2-carboxamide]
0.00	−5.20	−10.40	−4.20	NC1(C(=O)NCCOc2cc(C(F)(F)F)cc(C(F)(F)F)c2)CC1 [Compound 21, 1-amino-N-(2-(3,5-bis(trifluoromethyl)phenoxy)ethyl) cyclopropane-1-carboxamide]
